From BigSolDB 2.1

O=C(O)c1cccnc1Nc1cccc(C(F)(F)F)c1
solubility (mole fraction)
Details | 288.15 K | 293.15 K | 298.15 K | 303.15 K | 308.15 K | 313.15 K | 318.15 K | 323.15 K | 328.15 K
in isopropanol | 0.00751 | 0.00844 | 0.00941 | 0.0107 | 0.0131 | 0.0152 | 0.0179 | 0.0209 | 0.0235
in isopropyl acetate | 0.0228 | 0.0264 | 0.029 | 0.0324 | 0.0372 | 0.0435 | 0.05 | 0.0564 | 0.0637
in methanol | 0.00655 | 0.00766 | 0.00862 | 0.00967 | 0.0107 | 0.0118 | 0.0135 | 0.0151 | 0.0171
in n-heptane | 0.00171 | 0.00276 | 0.00404 | 0.00562 | 0.00726 | 0.00951 | 0.0121 | 0.0145 | 0.0172
in n-hexane | 0.00145 | 0.00256 | 0.00382 | 0.00539 | 0.00678 | 0.00896 | 0.011 | 0.0131 | 0.0155
in n-propanol | 0.00879 | 0.00999 | 0.011 | 0.0129 | 0.0147 | 0.0174 | 0.0202 | 0.0232 | 0.0266
in toluene | – | 0.00154 | 0.00242 | 0.00395 | 0.00532 | 0.0073 | 0.00991 | 0.0133 | 0.0172
